Results published in patent US20080227770A1, “Benzoxazepine Compound” (Takeda Pharmaceutical Company Limited, priority 2003, published 2008).

COc1cccc([C@H]2O[C@H](Cc3ncc(CC(=O)O)s3)C(=O)N(CC(C)(C)CO)c3ccc(Cl)cc32)c1OC [Example 1, (2-{[(3R,5S)-7-chloro-5-(2,3-dimethoxyphenyl)-1-(3-hydroxy-2,2-dimethylpropyl)-2-oxo-1,2,3,5-tetrahydro-4,1-benzoxazepin-3-yl]methyl}-1,3-thiazol-5-yl)acetic acid]
melting point: 219 to 222 °C (dec.)
